Laboratory results published in patent publication US6458766B1, “Halovir, an antiviral marine natural product, and derivatives thereof” (The Regents of the University of California, priority 1998, dated 2002).
Like-named read-outs stand apart in the source and are kept apart here. Non-standard residues stand in square brackets, D forms with d. Residues, ends and D or L forms follow the SMILES beside them. *: point of attachment. Myristoyl = CCCCCCCCCCCCCC(=O)*; Hyp = O=C(O)[CH]1C[CH](O)CN1; Leu(ol) = CC(C)C[CH](N)CO; X1 = CC(=O)OCC(CC(C)C)N*; Aib = CC(C)(N)C(=O)O

Legend:
HSV-1 [1] = type: cell-based, Herpes simplex virus
Protocol: Four experimental solutions were prepared.
Solution 1: Viral Inactivation
HSV-1 was diluted to 50,000 pfu/ml in 1.35 mL MEM with 0% Fetal Bovine Serum (0% MEM). This was treated with 8.2 μL of a solution of Halovir A dissolved in DMSO at a concentration of 25 mg/mL.
Solution 2: DMSO Inactivation Control
Solution 2 was prepared in an identical manner as solution 1, except that pure DMSO was added to the viral suspension.
This experiment provides a baseline for 100% cell survival. Solution 3 was prepared with 1.35 mL 0% MEM with 8.2 μL DMSO.
Solution 4: Normal Assay Conditions
Virus was diluted in 1.36 mL 0% MEM to a final concentration of 50,000 pfu/mL. No DMSO or Halovir A was added.
All solutions were vortexed for 30 seconds and then shaken at ambient temperature for 2.5 hours. They were then vortexed for 30 seconds, and 100 μL of each was diluted with 9.9 mL of 0% MEM (100×dilution). The diluted solutions are herein referred to as solutions 1-4.
96-well microtiter plates were prepared with Vero cells overnight, washed with PBS, and aspirated as previously described. 100 μL of Solution 1 was added to each well of a microtiter plate containing cells. This was repeated for Solutions 2-4. The plates were incubated at 37° C. and 5% CO2. After one hour, experiment plates prepared with Solutions 1-3 were overlaid with 100 μL of 2% MEM. […]

HSV-1 [2] = assay: MTT assay for antiviral activity against HSV-1 in Vero cells; type: cell-based, Herpes simplex virus; details: for antiviral activity against HSV-1: pure compounds from C18 HPLC of active fractions; for cells subjected to infection protected: test concentration 2.5 μg/mL, Vero cells, 50 pfu virus, five days incubation
Protocol: Antiviral activity of the halovirs was determined in vitro against the. HSV-I by an MTT assay (Hitoshi Takeuchi, An application of tetrazolium (MTT) calorimetric assay for screening of anti-herpes simplex virus compounds, Journal of Virological Methods, 33 (1991) 61-71), modified as follows. Vero cells were plated at a concentration of 10,000 cells/well in 100 μL of minimum essential medium (MEM) containing 5% fetal bovine serum (FBS) in 96-well plates. The cells were incubated overnight at 37° C. and 5% CO2. The media was removed by aspiration, and 100 μL of phosphate buffered saline (PBS) was added to each well and then aspirated. The wells were treated with 100 μL of MEM containing 50 plaque forming units (pfu) of virus and incubated for one hour. Each well was then overlayed with 100 μL of media containing 2% FBS and serial dilutions of an appropriate halovir solution. The halovir solution was previously prepared by dissolving the halovir in DMSO. After incubation for five days, each well was treated with 20 μL of a solution of 10 mg/mL of MTT in PBS. […] The media was carefully aspirated, and 100 μL of acidified isopropanol was added to dissolve any formazan produced. Acidified isopropanol solution is prepared by adding 50 mL Triton X100 and 2 mL concentrated HCL to 450 mL isopropanol. The optical density of the wells at 550 nm was determined using an ELISA plate reader. The amount of formazan present is directly proportional to the number of surviving cells in a given well. The amount of formazan were spectrophotometrically measured in wells with no antiviral agent and virus to establish a quantitative standard for 100% cell survival. Similarly wells with only virus were measured and used to establish a quantitative standard for 0% cell survival. At a test concentration of 2.5 μg/mL, Halovirs A, B, C, and D protected 50%, 40%, 33%, and 55%, respectively, of the cells subjected to infection.

Structure (SMILES) | mean optical density at 550 nm (OD) (HSV-1 [1]; Solution 1: HSV-1 treated with Halovir A for 2.5 hours, 100x dilution, then added to Vero cells, mean of 80 wells) | mean optical density at 550 nm (OD) (HSV-1 [1]; Solution 4: normal assay conditions, untreated virus, overlay with 2% MEM containing 1.5 μg/mL Halovir A after one hour) | antiviral activity against HSV-1 (HSV-1 [2]) | cells subjected to infection protected (HSV-1 [2]) [%]
CCCCCCCCCCCCCC(=O)NC(C)(C)C(=O)N1CC(O)CC1C(=O)NC(CC(C)C)C(=O)NC(C(=O)NC(CCC(N)=O)C(=O)NC(CO)CC(C)C)C(C)C (stereo not drawn) [Halovir A, CH3(CH2)12C(O)-Aib-Hyp-Leu-Val-Gln-Leu(OH)] (Myristoyl-[Aib][Hyp]LVQ[Leu(ol)]; configuration not given here) | 1.18 | 0.32 | potent antiviral activity | 50
CCCCCCCCCCCCCC(=O)NC(C)(C)C(=O)N1CCCC1C(=O)NC(CC(C)C)C(=O)NC(C(=O)NC(CCC(N)=O)C(=O)NC(CO)CC(C)C)C(C)C (stereo not drawn) [Halovir C, CH3(CH2)12C(O)-Aib-Pro-Leu-Val-Gln-Leu(OH)] (Myristoyl-[Aib]PLVQ[Leu(ol)]; configuration not given here) | – | – | potent antiviral activity | 33
CCCCCCCCCCCCCC(=O)NC(C)(C)C(=O)N1CC(OC(C)=O)CC1C(=O)NC(CC(C)C)C(=O)NC(C(=O)NC(CCC(N)=O)C(=O)NC(COC(C)=O)CC(C)C)C(C)C (stereo not drawn) [Halovir D, CH3(CH2)12C(O)-Aib-Hyp(OAc)-Leu-Val-Gln-Leu(OAc)] (Myristoyl-[Aib][Hyp](Ac)LVQ-X1; configuration not given here) | – | – | – | 55
CCCCCCCCCCCCCC(=O)NC(C)(C)C(=O)N1CC(O)CC1C(=O)NC(CC(C)C)C(=O)NC(C)C(=O)NC(CCC(N)=O)C(=O)NC(CO)CC(C)C (stereo not drawn) [Halovir B, CH3(CH2)12C(O)-Aib-Hyp-Leu-Ala-Gln-Leu(OH)] (Myristoyl-[Aib][Hyp]LAQ[Leu(ol)]; configuration not given here) | – | – | potent antiviral activity | 40
